Experimental data reported in BigSolDB 2.1.

CCCSc1nc(N[C@@H]2C[C@H]2c2ccc(F)c(F)c2)c2nnn([C@@H]3C[C@H](OCCO)[C@@H](O)[C@H]3O)c2n1
solubility (mole fraction)
Details	273.15 K	278.15 K	283.15 K	288.15 K	293.15 K	298.15 K	303.15 K	308.15 K	313.15 K
in ethyl acetate	0.00246	0.00306	0.00399	0.00496	0.00602	0.00717	0.00899	0.0112	0.0139
in isopropanol	0.00074	0.00102	0.00138	0.00213	0.00304	0.00415	0.00571	0.00785	0.0112
in isopropyl acetate	0.0011	0.00136	0.00171	0.00205	0.00243	0.00295	0.00355	0.0045	0.00545
in n-butanol	0.00106	0.00155	0.0021	0.00278	0.00371	0.00476	0.00633	0.00826	0.0114
in n-propanol	0.00212	0.00288	0.00387	0.00513	0.00683	0.00958	0.0128	0.0165	0.0222
in sec-butanol	0.000855	0.00116	0.00181	0.00249	0.00359	0.00494	0.00693	0.00992	0.0137
